Test results published in ChEMBL document CHEMBL3580558, “Salternamides A-D from a Halophilic Streptomyces sp. Actinobacterium” (J Nat Prod, 2015).

Legend:
[1] = Inhibition of porcine cerebral cortex Na+/K+ ATPase incubated at 37 degC for 30 mins using 3-O-methylfluorescein phosphate and […] by fluorometry; type: tissue-based, Sus scrofa
[2] = test system: A549; assay: Antiproliferative activity against human A549 cells after 3 days by sulforhodamine B assay; type: functional, cell-based; conditions: A549, 72 h
[3] = test system: HCT-116; assay: Antiproliferative activity against human HCT116 cells after 3 days by sulforhodamine B assay; type: functional, cell-based; conditions: HCT-116, 72 h
[4] = test system: K562; assay: Antiproliferative activity against human K562 cells after 3 days by sulforhodamine B assay; type: functional, cell-based; conditions: K562, 72 h
[5] = test system: MDA-MB-231; assay: Antiproliferative activity against human MDA-MB-231 cells after 3 days by sulforhodamine B assay; type: functional, cell-based; conditions: MDA-MB-231, 72 h
[6] = Antiproliferative activity against human SNU638 cells after 3 days by sulforhodamine B assay; type: functional, cell-based; conditions: SNU-638, 72 h
[7] = Antiproliferative activity against human SKHEP1 cells after 3 days by sulforhodamine B assay; type: functional, cell-based; conditions: SK-HEP1, 72 h

SMILES	IC50 ([1]; read-out: IC50) [µM]	IC50 [2] [µM]	IC50 [3] [µM]	IC50 [4] [µM]	IC50 [5] [µM]	IC50 [1]	IC50 [6] [µM]	IC50 [7] [µM]
CC(C)=C[C@H](C)C[C@H](C)/C=C/C(=O)NC1=C[C@](O)(CCCCC(=O)O)C=C(Cl)C1=O	62	36	0.96	8.9	8.9	–	0.96	2.7
CC(C)=C[C@H](C)C[C@H](C)/C=C/C(=O)NC1=C[C@](O)(CCCCC(=O)O)C=CC1=O	–	82	55	> 100	27	Not Active	27	56
CC(C)=C[C@H](C)C[C@H](C)/C=C(\C)C(=O)NC1=C[C@](O)(CCCCC(=O)O)[C@@H](O)CC1=O	30	> 100	34	59	92	–	15	32
C[C@@H]1O[C@@H](O[C@H]2C[C@@H](O)[C@]3(CO)[C@H]4[C@H](O)C[C@]5(C)[C@@H](C6=CC(=O)OC6)CC[C@]5(O)[C@@H]4CC[C@]3(O)C2)[C@H](O)[C@H](O)[C@H]1O [OUABAIN]	3.8	–	–	–	–	–	–	–

Further lines, with some results ahead:

IC50 ([1]; read-out: IC50) [µM]	IC50 [2] [µM]	IC50 [3] [µM]	IC50 [4] [µM]	IC50 [5] [µM]	IC50 [1]	SMILES	IC50 [6] [µM]	IC50 [7] [µM]
> 100	> 100	> 100	> 100	> 100	–	CC(C)=C[C@H](C)C[C@H](C)/C=C/C(=O)NC1=C[C@](O)(CCCCC(=O)O)[C@@H](O)CC1=O	> 100	> 100
–	0.8	–	3.1	11	–	COc1cc([C@@H]2c3cc4c(cc3[C@@H](O[C@@H]3O[C@@H]5CO[C@@H](C)O[C@H]5[C@H](O)[C@H]3O)[C@H]3COC(=O)[C@H]23)OCO4)cc(OC)c1O [ETOPOSIDE]	0.5	1.1
